The values that follow come from US11969497B2, “Method for producing an Entada seed extract enriched with metabolites of interest, extract produced by such a method, and cosmetic and dermocosmetic applications of such an extract” (EXSYMOL, priority 2018, dated 2024).

The subject of one assay is MMP-1 metalloproteinase. In words: MMP-1 secretion by primary human fibroblasts (NHDF) exposed to blue light, ELISA (test 6). It counts as cell-based. To be noted: 5 mM; blue light 30 J/cm^2; non-irradiated 100, irradiated control 214. A general note: An ELISA detects its analyte on a solid surface through an enzyme-linked reagent.
Assay [1] is described as follows: ABTS antioxidant test (test 2a). To be noted: absorbance 734 nm after 6 minutes. How it is done: (§1) This solution was then was diluted in water to obtain, under the test conditions, an absorbance of 0.5 at 734 nm. In each well of a 96-well microplate, were placed 100 μL of a solution of the extract according to the invention to be evaluated and 150 μL of oxidized ABTS solution. After 6 minutes, the absorbance was measured at 734 nm.

The nature of assay [2]: DPPH antioxidant test (test 2b). To be noted: absorbance 517 nm after 30 minutes. The method, then: as §1
Experimentally by the DPPH test in each well of a 96 well micro plate, were placed 100 μL of a solution of the active to be evaluated and 100 μL of an ethanol solution of 1,1-diphenyl-2-picrylhydrazyle (DPPH-Aldrich D913-2) at 200 μM. After 30 minutes, the absorbance was measured at 517 nm.
On the technique in general: DPPH is a stable violet radical that fades when it is reduced.

The nature of assay [3]: Photo-induced isomerization of trans-urocanic acid under UV-B (test 1a/1b), HPLC assay. Conditions: test 1b. The method, then:
Two series of experiments were performed, the first with a fixed dose UV-B radiation of 300 mJ/cm^2 (test 1a), the second with a varying dose of UV-B radiation (test 1b) and using as a control a synthetic replica of entadamide A, namely the compound “(E)-N-(2-hydroxyethyl)-3-[…]” which is the subject of patent application EP 3103436.
Experimentally, the test was carried out in a 0.01 M citrate buffer of pH 5.5, the slightly acidic pH being more in relation to the acidity of the superficial skin layers in which the trans-urocanic acid marker is located. Thus, the solutions to be irradiated (20 mL), namely the control with or without the extract according to the invention, were placed in glass Petri dishes, uncovered, then subjected at room temperature to UV-B irradiation using a UV-B oven (LabOSI®). Aliquots (500 μL) were then sampled in HPLC vials to be immediately stored protected from light and at low temperature (+4/+8° C.), prior to analysis by HPLC assay. Chromatographic profiles were thus obtained, and the residual amount of trans-urocanic acid was determined.
Experimentally concerning test 1b, the study was carried out in an almost identical manner to test 1a above, with first checking that under the experimental conditions defined, trans-urocanic acid generated a significant amount of cis-urocanic acid which can be measured by HPLC analysis. […]

Method for MMP-1 metalloproteinase: Primary human fibroblasts (“NHDF”) were isolated from a mammoplasty from a patient. The NHDFs were cultured in DMEM medium supplemented with 4.5 g/l of glucose and 10% of FCS. They were maintained in an atmosphere at 37° C. and 10% CO2. On D-3, the fibroblasts were inoculated in 24-well plates at a rate of 15,000 cells/cm^2. On D-1, the NHDFs were incubated at 37° C. and 10% CO2 for 24 h with the extract of Entada seeds according to the invention. […] After irradiation, the cells were reincubated at 37° C. and 10% CO2 for an additional 24 h and the culture supernatants were harvested in order to perform an ELISA assay of the MMP-1 metalloproteinase (Abcam kit, ab100603). The results obtained were normalized with respect to the quantity of cells per condition and subjected to statistical analysis in triplicate.

On to `CC(=O)N[C@@H](CS)C(=O)O` [N-acetyl-L-cysteine (NAC), N-acetyl-L-cysteine], for which the “% of MMP-1 secreted” value in the assay with MMP-1 metalloproteinase is 61%.

Regarding `O=C1O[C@H]([C@@H](O)CO)C(O)=C1O` [ascorbic acid], the EC50 was found to be 24 µM in assay [1] and 25 µM in assay [2].

In the case of `O=C(O)Cc1cc(O)ccc1O[C@@H]1O[C@H](CO)[C@@H](O)[C@H](O)[C@H]1O` [phaseoloidin, 2-O-β-D-glucopyranoside derivative of homogentisic acid], the “contribution of non-hydrolyzed phaseoloidin in the photoprotective activity of the extract against UV-B radiation” value in assay [3] is listed as above 25%. Besides, the EC50 was 8.3 µM in assay [1] and 540 µM in assay [2].

Usually EC50 stands for the concentration at which the effect is half-maximal. Read a low EC50 as a more potent agent.
